In ChEMBL document CHEMBL4673219, “Novel 5,6-disubstituted pyrrolo[2,3-d]pyrimidine derivatives as broad spectrum antiproliferative agents: Synthesis, cell based assays, kinase profile and molecular docking study” (Bioorg Med Chem, 2018):
Where “and” joins values, the source holds several entries; their conditions need not be identical. Identical values can stand only once.

Columns and labels:
Format in all cases: functional
786-0 [1] = assay: Growth inhibition of human 786-0 cells assessed as growth percentage at 0.01 uM incubated for 48 hrs by sulforhodamine B assay relative to control; settings: read-out: Activity
SK-OV-3 [2] = assay: Growth inhibition of human SK-OV-3 cells assessed as growth percentage at 0.1 uM incubated for 48 hrs by sulforhodamine B assay relative to control; settings: read-out: Activity
SK-BR-3 = assay: Antiproliferative activity against human SK-BR-3 cells assessed as cell growth inhibition at 10 uM measured after 72 hrs by MTT assay relative to control; settings: read-out: GI
RPMI-8226 = assay: Growth inhibition of human RPMI-8226 cells assessed as growth percentage at 0.01 uM incubated for 48 hrs by sulforhodamine B assay relative to control; settings: read-out: Activity
SK-OV-3 [3] = assay: Growth inhibition of human SK-OV-3 cells assessed as growth percentage at 100 uM incubated for 48 hrs by sulforhodamine B assay relative to control; settings: read-out: Activity
UACC-257 = assay: Growth inhibition of human UACC-257 cells assessed as growth percentage at 1 uM incubated for 48 hrs by sulforhodamine B assay relative to control; settings: read-out: Activity
K562 = assay: Growth inhibition of human K562 cells assessed as growth percentage at 100 uM incubated for 48 hrs by sulforhodamine B assay relative to control; settings: read-out: Activity
OVCAR-8 = assay: Growth inhibition of human OVCAR-8 cells assessed as growth percentage at 0.01 uM incubated for 48 hrs by sulforhodamine B assay relative to control; settings: read-out: Activity
A498 [4] = assay: Growth inhibition of human A498 cells assessed as growth percentage at 1 uM incubated for 48 hrs by sulforhodamine B assay relative to control; settings: read-out: Activity
SK-MEL-28 [5] = assay: Growth inhibition of human SK-MEL-28 cells assessed as growth percentage at 10 uM incubated for 48 hrs by sulforhodamine B assay relative to control; settings: read-out: Activity
RXF 393 [6] = assay: Growth inhibition of human RXF 393 cells assessed as growth percentage at 0.01 uM incubated for 48 hrs by sulforhodamine B assay relative to control; settings: read-out: Activity
COLO 205 = assay: Growth inhibition of human COLO 205 cells assessed as growth percentage at 0.01 uM incubated for 48 hrs by sulforhodamine B assay relative to control; settings: read-out: Activity
LOX IMVI [7] = assay: Growth inhibition of human LOX IMVI cells incubated for 48 hrs by sulforhodamine B assay
NCI-H522 [8] = assay: Growth inhibition of human NCI-H522 cells assessed as growth percentage at 0.1 uM incubated for 48 hrs by sulforhodamine B assay relative to control; settings: read-out: Activity
BT-549 [9] = assay: Growth inhibition of human BT-549 cells incubated for 48 hrs by sulforhodamine B assay
NCI-H522 [10] = assay: Growth inhibition of human NCI-H522 cells incubated for 48 hrs by sulforhodamine B assay
RXF 393 [11] = assay: Growth inhibition of human RXF 393 cells assessed as growth percentage at 1 uM incubated for 48 hrs by sulforhodamine B assay relative to control; settings: read-out: Activity
SF-295 = assay: Growth inhibition of human SF-295 cells assessed as growth percentage at 10 uM incubated for 48 hrs by sulforhodamine B assay relative to control; settings: read-out: Activity
786-0 [12] = assay: Growth inhibition of human 786-0 cells assessed as growth percentage at 1 uM incubated for 48 hrs by sulforhodamine B assay relative to control; settings: read-out: Activity
BT-549 [13] = assay: Growth inhibition of human BT-549 cells assessed as growth percentage at 100 uM incubated for 48 hrs by sulforhodamine B assay relative to control; settings: read-out: Activity
NCI-H23 = assay: Growth inhibition of human NCI-H23 cells assessed as growth percentage at 0.01 uM incubated for 48 hrs by sulforhodamine B assay relative to control; settings: read-out: Activity
A498 [14] = assay: Growth inhibition of human A498 cells assessed as growth percentage at 10 uM incubated for 48 hrs by sulforhodamine B assay relative to control; settings: read-out: Activity
TK-10 = assay: Growth inhibition of human TK-10 cells assessed as growth percentage at 0.01 uM incubated for 48 hrs by sulforhodamine B assay relative to control; settings: read-out: Activity
SR [15] = assay: Growth inhibition of human SR cells assessed as growth percentage at 0.1 uM incubated for 48 hrs by sulforhodamine B assay relative to control; settings: read-out: Activity
HOP-62 = assay: Growth inhibition of human HOP-62 cells incubated for 48 hrs by sulforhodamine B assay
LOX IMVI [16] = assay: Growth inhibition of human LOX IMVI cells assessed as growth percentage at 0.1 uM incubated for 48 hrs by sulforhodamine B assay relative to control; settings: read-out: Activity
SK-OV-3 [17] = assay: Growth inhibition of human SK-OV-3 cells assessed as growth percentage at 10 uM incubated for 48 hrs by sulforhodamine B assay relative to control; settings: read-out: Activity
MCF7 = assay: Antiproliferative activity against human MCF7 cells assessed as cell growth inhibition measured after 72 hrs by MTT assay
OVCAR-5 = assay: Growth inhibition of human OVCAR-5 cells incubated for 48 hrs by sulforhodamine B assay
SK-OV-3 [18] = assay: Growth inhibition of human SK-OV-3 cells assessed as growth percentage at 0.01 uM incubated for 48 hrs by sulforhodamine B assay relative to control; settings: read-out: Activity
LOX IMVI [19] = assay: Growth inhibition of human LOX IMVI cells assessed as growth percentage at 0.01 uM incubated for 48 hrs by sulforhodamine B assay relative to control; settings: read-out: Activity
SK-MEL-28 [20] = assay: Growth inhibition of human SK-MEL-28 cells incubated for 48 hrs by sulforhodamine B assay
SR [21] = assay: Growth inhibition of human SR cells assessed as growth percentage at 10 uM incubated for 48 hrs by sulforhodamine B assay relative to control; settings: read-out: Activity
SN12C = assay: Growth inhibition of human SN12C cells assessed as growth percentage at 1 uM incubated for 48 hrs by sulforhodamine B assay relative to control; settings: read-out: Activity
HT-29 = assay: Growth inhibition of human HT-29 cells assessed as growth percentage at 100 uM incubated for 48 hrs by sulforhodamine B assay relative to control; settings: read-out: Activity
Malme-3M = assay: Growth inhibition of human Malme-3M cells assessed as growth percentage at 0.1 uM incubated for 48 hrs by sulforhodamine B assay relative to control; settings: read-out: Activity
BT-549 [22] = assay: Growth inhibition of human BT-549 cells assessed as growth percentage at 1 uM incubated for 48 hrs by sulforhodamine B assay relative to control; settings: read-out: Activity
HCC 2998 = assay: Growth inhibition of human HCC 2998 cells assessed as growth percentage at 0.01 uM incubated for 48 hrs by sulforhodamine B assay relative to control; settings: read-out: Activity
LOX IMVI [23] = assay: Growth inhibition of human LOX IMVI cells assessed as growth percentage at 100 uM incubated for 48 hrs by sulforhodamine B assay relative to control; settings: read-out: Activity
CAKI-1 = assay: Growth inhibition of human CAKI-1 cells assessed as growth percentage at 100 uM incubated for 48 hrs by sulforhodamine B assay relative to control; settings: read-out: Activity
[24] = read-out: LC50 (the source's name)

Question: What does the source list for `Nc1nc2[nH]c(CN3CCN(c4cc(Cl)cc(Cl)c4)CC3)c(CN3CCN(c4cc(Cl)cc(Cl)c4)CC3)c2c(=O)[nH]1`?
Answer: growth at 0.01 µM (786-0 [1]): 94%; growth at 0.1 µM (SK-OV-3 [2]): 103%; inhibition of growth at 10 µM (SK-BR-3): 90%; growth at 0.01 µM (RPMI-8226): 102%; growth at 100 µM (SK-OV-3 [3]): -74%; growth at 1 µM (UACC-257): 93%; growth at 100 µM (K562): 3%; growth at 0.01 µM (OVCAR-8): 100%; growth at 1 µM (A498 [4]): 75%; growth at 10 µM (SK-MEL-28 [5]): 90.8%; growth at 0.01 µM (RXF 393 [6]): 95%; growth at 0.01 µM (COLO 205): 95%; GI50 (LOX IMVI [7]; Homo sapiens, LOX IMVI): 1.94 µM; TGI (LOX IMVI [7]; Homo sapiens, LOX IMVI): 3.57 µM; growth at 0.1 µM (NCI-H522 [8]): 97%; GI50 (BT-549 [9]): 1.72 µM; TGI (BT-549 [9]): 3.76 µM; GI50 (NCI-H522 [10]): 1.74 µM; TGI (NCI-H522 [10]): 3.44 µM; growth at 1 µM (RXF 393 [11]): 85%; growth at 10 µM (SF-295): 98.4%; growth at 1 µM (786-0 [12]): 82%; growth at 100 µM (BT-549 [13]): -37%; growth at 0.01 µM (NCI-H23): 104%; growth at 10 µM (A498 [14]): 64.4%; growth at 0.01 µM (TK-10): 101%; growth at 0.1 µM (SR [15]): 105%; GI50 (HOP-62): 1.67 µM; TGI (HOP-62): 3.45 µM; growth at 0.1 µM (LOX IMVI [16]): 99%; growth at 10 µM (SK-OV-3 [17]): 90.2%; GI50 (MCF7): 4.02 µM; GI50 (OVCAR-5): 2.64 µM; TGI (OVCAR-5): 9.27 µM; growth at 0.01 µM (SK-OV-3 [18]): 95%; growth at 0.01 µM (LOX IMVI [19]): 99%; GI50 (SK-MEL-28 [20]): 1.79 µM; TGI (SK-MEL-28 [20]): 3.62 µM; growth at 10 µM (SR [21]): 12.1%; growth at 1 µM (SN12C): 95%; growth at 100 µM (HT-29): -70%; growth at 0.1 µM (Malme-3M): 90%; growth at 1 µM (BT-549 [22]): 85%; growth at 0.01 µM (HCC 2998): 106%; growth at 100 µM (LOX IMVI [23]): -35%; growth at 100 µM (CAKI-1): -97%

Question: Which results are given for `CCCCCCCC(=O)Nc1nc2[nH]c(CN3CCN(Cc4cccc(F)c4)CC3)c(CN3CCN(Cc4cccc(F)c4)CC3)c2c(=O)[nH]1`?
Answer: growth at 0.01 µM (786-0 [1]): 98%; growth at 0.1 µM (SK-OV-3 [2]): 94%; inhibition of growth at 10 µM (SK-BR-3): 93.1%; growth at 0.01 µM (RPMI-8226): 101%; growth at 100 µM (SK-OV-3 [3]): -99%; growth at 1 µM (UACC-257): -48%; growth at 100 µM (K562): -1%; growth at 0.01 µM (OVCAR-8): 102%; growth at 1 µM (A498 [4]): 66%; growth at 10 µM (SK-MEL-28 [5]): -97%; growth at 0.01 µM (RXF 393 [6]): 100%; growth at 0.01 µM (COLO 205): 92%; GI50 (LOX IMVI [7]): 0.2 µM; LC50 (concentration killing 50% of cells) (LOX IMVI [7]): 8.87 µM and 0.89 µM; TGI (LOX IMVI [7]): 0.42 µM; GI50 (LOX IMVI [7]; Homo sapiens, LOX IMVI): 0.195 µM; TGI (LOX IMVI [7]; Homo sapiens, LOX IMVI): 0.416 µM; growth at 0.1 µM (NCI-H522 [8]): 94%; GI50 (BT-549 [9]): 1.53 µM; TGI (BT-549 [9]): 2.92 µM; CC50 (BT-549 [9]; [24]): 5.58 µM; GI50 (NCI-H522 [10]): 1.91 µM; LC50 (NCI-H522 [10]): 6.88 µM; TGI (NCI-H522 [10]): 3.62 µM; growth at 1 µM (RXF 393 [11]): 29%; growth at 10 µM (SF-295): -69.2%; growth at 1 µM (786-0 [12]): 83%; growth at 100 µM (BT-549 [13]): -91%; growth at 0.01 µM (NCI-H23): 98%; growth at 10 µM (A498 [14]): 61.6%; growth at 0.01 µM (TK-10): 91%; growth at 0.1 µM (SR [15]): 88%; GI50 (HOP-62): 1.42 µM; TGI (HOP-62): 2.85 µM; CC50 (HOP-62; [24]): 5.7 µM; growth at 0.1 µM (LOX IMVI [16]): 94%; growth at 10 µM (SK-OV-3 [17]): -61%; GI50 (MCF7): 2.15 µM; GI50 (OVCAR-5): 2.64 µM; TGI (OVCAR-5): 9.27 µM; growth at 0.01 µM (SK-OV-3 [18]): 108%; growth at 0.01 µM (LOX IMVI [19]): 87%; GI50 (SK-MEL-28 [20]): 1.79 µM; TGI (SK-MEL-28 [20]): 3.62 µM; growth at 10 µM (SR [21]): -52.8%; growth at 1 µM (SN12C): 76%; growth at 100 µM (HT-29): -68%; growth at 0.1 µM (Malme-3M): 96%; growth at 1 µM (BT-549 [22]): 63%; growth at 0.01 µM (HCC 2998): 99%; growth at 100 µM (LOX IMVI [23]): -75%; growth at 100 µM (CAKI-1): -96%
